Measured values as given in PubChem BioAssay AID2060602 (Molecular Pharmacology Branch, DTP, NCI, 2025).
Values joined by “and” are separate entries in the source; they are usually repeats but may differ in a detail not shown here. Equal entries are not always repeated.

Test system: 648629-189-R-J1-PDC complex spheroids viability
Assay: Anticancer human tumor 648629-189-R-J1-PDC patient-derived bladder carcinoma cell line growth inhibition [CLK]
Conditions: for viability, T/C: stronger effect = lower value
Procedure, shortened: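 Multi-cell-type spheroids combined patient-derived tumor cells with HUVEC endothelial cells and human mesenchymal stem cells. Paired agents were dosed in half-log steps down from about clinical Cmax, or from 10 microM where Cmax was unknown.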

[1] = curve of first compound, second compound 0.0316 µM
[2] = curve of first compound, second compound 0.1 µM
[3] = curve of first compound, second compound 0.316 µM
[4] = curve of first compound, second compound 1 µM
[5] = curve of first compound, second compound 3.16 µM
[6] = curve of first compound, second compound 10 µM
[7] = second compound 0.0316 µM, first compound 0.0316 µM
[8] = second compound 0.0316 µM, first compound 0.1 µM
[9] = second compound 0.0316 µM, first compound 0.316 µM
[10] = second compound 0.0316 µM, first compound 1 µM
[11] = second compound 0.1 µM, first compound 0.0316 µM
[12] = second compound 0.1 µM, first compound 0.1 µM
[13] = second compound 0.1 µM, first compound 0.316 µM
[14] = second compound 0.1 µM, first compound 1 µM
[15] = second compound 0.316 µM, first compound 0.0316 µM
[16] = second compound 0.316 µM, first compound 0.1 µM
[17] = second compound 0.316 µM, first compound 0.316 µM
[18] = second compound 0.316 µM, first compound 1 µM
[19] = second compound 1 µM, first compound 0.0316 µM
[20] = second compound 1 µM, first compound 0.1 µM
[21] = second compound 1 µM, first compound 0.316 µM
[22] = second compound 1 µM, first compound 1 µM
[23] = second compound 3.16 µM, first compound 0.0316 µM
[24] = second compound 3.16 µM, first compound 0.1 µM
[25] = second compound 3.16 µM, first compound 0.316 µM
[26] = second compound 3.16 µM, first compound 1 µM
[27] = second compound 10 µM, first compound 0.0316 µM
[28] = second compound 10 µM, first compound 0.1 µM
[29] = second compound 10 µM, first compound 0.316 µM
[30] = second compound 10 µM, first compound 1 µM
[31] = second compound 0.0316 µM, first compound 3.16 µM
[32] = second compound 0.0316 µM, first compound 10 µM
[33] = second compound 0.1 µM, first compound 3.16 µM
[34] = second compound 0.1 µM, first compound 10 µM
[35] = second compound 0.316 µM, first compound 3.16 µM
[36] = second compound 0.316 µM, first compound 10 µM
[37] = second compound 1 µM, first compound 3.16 µM
[38] = second compound 1 µM, first compound 10 µM
[39] = second compound 3.16 µM, first compound 3.16 µM
[40] = second compound 3.16 µM, first compound 10 µM
[41] = second compound 10 µM, first compound 3.16 µM
[42] = second compound 10 µM, first compound 10 µM
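Throughout, for viability, T/C: drug exposure lasted seven days before viability readout; 100% = DMSO vehicle control wells.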

## NC(=O)C(=Cn1cnc(-c2cc(C(F)(F)F)cc(C(F)(F)F)c2)n1)c1cncnc1 + CN1CCN(c2cc(C(=O)Nc3cc4cc(-c5cnn(C)c5)ccc4cn3)ccn2)CC1
[1]
  IC50: 54.4 nM
[2]
  IC50: 53.3 nM
[3]
  IC50: < 9.49 nM
[4]
  IC50: < 9.49 nM
[5]
  IC50: < 9.49 nM
[6]
  IC50: < 9.49 nM
Second compound 0.0316 µM, first compound 0.00949 µM
  viability, T/C: 113%
Second compound 0.0316 µM, first compound 0.03 µM
  viability, T/C: 88.2%
Second compound 0.0316 µM, first compound 0.0949 µM
  viability, T/C: 14.3%
Second compound 0.0316 µM, first compound 0.3 µM
  viability, T/C: 2.66%
Second compound 0.0316 µM, first compound 0.949 µM
  viability, T/C: 1.8%
Second compound 0.0316 µM, first compound 3 µM
  viability, T/C: 1.61%
Second compound 0.1 µM, first compound 0.00949 µM
  viability, T/C: 93.7%
Second compound 0.1 µM, first compound 0.03 µM
  viability, T/C: 87.7%
Second compound 0.1 µM, first compound 0.0949 µM
  viability, T/C: 12.2%
Second compound 0.1 µM, first compound 0.3 µM
  viability, T/C: 2.12%
Second compound 0.1 µM, first compound 0.949 µM
  viability, T/C: 0.68%
Second compound 0.1 µM, first compound 3 µM
  viability, T/C: 0.92%
Second compound 0.316 µM, first compound 0.00949 µM
  viability, T/C: 14.6%
Second compound 0.316 µM, first compound 0.03 µM
  viability, T/C: 11.7%
Second compound 0.316 µM, first compound 0.0949 µM
  viability, T/C: 3%
Second compound 0.316 µM, first compound 0.3 µM
  viability, T/C: 0.3%
Second compound 0.316 µM, first compound 0.949 µM
  viability, T/C: 0.08%
Second compound 0.316 µM, first compound 3 µM
  viability, T/C: 1.52%
Second compound 1 µM, first compound 0.00949 µM
  viability, T/C: 0.1%
Second compound 1 µM, first compound 0.03 µM
  viability, T/C: 0.12%
Second compound 1 µM, first compound 0.0949 µM
  viability, T/C: 0.12%
Second compound 1 µM, first compound 0.3 µM
  viability, T/C: 0.07%
Second compound 1 µM, first compound 0.949 µM
  viability, T/C: 0.06%
Second compound 1 µM, first compound 3 µM
  viability, T/C: 0.63%
Second compound 3.16 µM, first compound 0.00949 µM
  viability, T/C: 0.07%
Second compound 3.16 µM, first compound 0.03 µM
  viability, T/C: 0.1%
Second compound 3.16 µM, first compound 0.0949 µM
  viability, T/C: 0.12%
Second compound 3.16 µM, first compound 0.3 µM
  viability, T/C: 0.12%
Second compound 3.16 µM, first compound 0.949 µM
  viability, T/C: 0.79%
Second compound 3.16 µM, first compound 3 µM
  viability, T/C: 0.75%
Second compound 10 µM, first compound 0.00949 µM
  viability, T/C: 0.05%
Second compound 10 µM, first compound 0.03 µM
  viability, T/C: 0.08%
Second compound 10 µM, first compound 0.0949 µM
  viability, T/C: 0.17%
Second compound 10 µM, first compound 0.3 µM
  viability, T/C: 0.2%
Second compound 10 µM, first compound 0.949 µM
  viability, T/C: 1.48%
Second compound 10 µM, first compound 3 µM
  viability, T/C: 0.19%

## CCN1CCN(Cc2ccc(Nc3ncc(F)c(-c4cc(F)c5nc(C)n(C(C)C)c5c4)n3)nc2)CC1 + CN1CCN(c2cc(C(=O)Nc3cc4cc(-c5cnn(C)c5)ccc4cn3)ccn2)CC1
[1]
  IC50: > 1000 nM
[2]
  IC50: > 1000 nM
[3]
  IC50: < 3.16 nM
[4]
  IC50: < 3.16 nM
[5]
  IC50: < 3.16 nM
[6]
  IC50: < 3.16 nM
Second compound 0.0316 µM, first compound 0.00316 µM
  viability, T/C: 108%
Second compound 0.0316 µM, first compound 0.01 µM
  viability, T/C: 101%
[7]
  viability, T/C: 101%
[8]
  viability, T/C: 127%
[9]
  viability, T/C: 122%
[10]
  viability, T/C: 123%
Second compound 0.1 µM, first compound 0.00316 µM
  viability, T/C: 104%
Second compound 0.1 µM, first compound 0.01 µM
  viability, T/C: 104%
[11]
  viability, T/C: 102%
[12]
  viability, T/C: 101%
[13]
  viability, T/C: 108%
[14]
  viability, T/C: 101%
Second compound 0.316 µM, first compound 0.00316 µM
  viability, T/C: 37%
Second compound 0.316 µM, first compound 0.01 µM
  viability, T/C: 48.5%
[15]
  viability, T/C: 41.7%
[16]
  viability, T/C: 50.6%
[17]
  viability, T/C: 47.3%
[18]
  viability, T/C: 40.4%
Second compound 1 µM, first compound 0.00316 µM
  viability, T/C: 0.42%
Second compound 1 µM, first compound 0.01 µM
  viability, T/C: 0.24%
[19]
  viability, T/C: 0.61%
[20]
  viability, T/C: 0.35%
[21]
  viability, T/C: 0.54%
[22]
  viability, T/C: 0.32%
Second compound 3.16 µM, first compound 0.00316 µM
  viability, T/C: 0.14%
Second compound 3.16 µM, first compound 0.01 µM
  viability, T/C: 0.26%
[23]
  viability, T/C: 0.49%
[24]
  viability, T/C: 0.15%
[25]
  viability, T/C: 0.16%
[26]
  viability, T/C: 0.16%
Second compound 10 µM, first compound 0.00316 µM
  viability, T/C: 0.21%
Second compound 10 µM, first compound 0.01 µM
  viability, T/C: 0.21%
[27]
  viability, T/C: 0.17%
[28]
  viability, T/C: 0.16%
[29]
  viability, T/C: 1.22%
[30]
  viability, T/C: 1.51%

## C#Cc1c(F)ccc2cc(O)cc(-c3ncc4c(N5CC6CCC(C5)N6)nc(OCC56CCCN5CC(F)C6)nc4c3F)c12 (stereo not given)
Compound 0.0316 µM
  viability, T/C: 97.9% and 109%
Compound 0.1 µM
  viability, T/C: 94.2% and 99.3%
Compound 0.316 µM
  viability, T/C: 91.3% and 98%
Compound 1 µM
  viability, T/C: 91% and 107%
Compound 3.16 µM
  viability, T/C: 94.4% and 111%
Compound 10 µM
  viability, T/C: 88.9% and 101%
Curve of compound
  IC50: > 10000 nM

## CC1COCCN1c1cc(C2(S(C)(=N)=O)CC2)nc(-c2ccnc3[nH]ccc23)n1 (stereo not given) + CN1CCN(c2cc(C(=O)Nc3cc4cc(-c5cnn(C)c5)ccc4cn3)ccn2)CC1
[1]
  IC50: 4570 nM
[2]
  IC50: 3950 nM
[3]
  IC50: < 31.6 nM
[4]
  IC50: < 31.6 nM
[5]
  IC50: < 31.6 nM
[6]
  IC50: < 31.6 nM
[7]
  viability, T/C: 115%
[8]
  viability, T/C: 116%
[9]
  viability, T/C: 103%
[10]
  viability, T/C: 97.1%
[31]
  viability, T/C: 59.5%
[32]
  viability, T/C: 27.5%
[11]
  viability, T/C: 109%
[12]
  viability, T/C: 95.4%
[13]
  viability, T/C: 96.8%
[14]
  viability, T/C: 83%
[33]
  viability, T/C: 54.3%
[34]
  viability, T/C: 26.5%
[15]
  viability, T/C: 33.3%
[16]
  viability, T/C: 45.9%
[17]
  viability, T/C: 39.8%
[18]
  viability, T/C: 34.8%
[35]
  viability, T/C: 19.1%
[36]
  viability, T/C: 9.89%
[19]
  viability, T/C: 0.39%
[20]
  viability, T/C: 0.82%
[21]
  viability, T/C: 0.84%
[22]
  viability, T/C: 0.41%
[37]
  viability, T/C: 0.31%
[38]
  viability, T/C: 0.11%
[23]
  viability, T/C: 1.1%
[24]
  viability, T/C: 0.7%
[25]
  viability, T/C: 0.19%
[26]
  viability, T/C: 0.15%
[39]
  viability, T/C: 0.15%
[40]
  viability, T/C: 1.68%
[27]
  viability, T/C: 0.16%
[28]
  viability, T/C: 0.16%
[29]
  viability, T/C: 0.22%
[30]
  viability, T/C: 0.22%
[41]
  viability, T/C: 0.22%
[42]
  viability, T/C: 0.19%

## C=CC(=O)N1CCN(c2nc(=O)n(-c3c(C)ccnc3C(C)C)c3nc(-c4c(O)cccc4F)c(F)cc23)C(C)C1 (stereo not given) + CNC(=O)c1ccc(Nc2nc(OC3CCCC3)c3c(-c4ccc5nc(C)oc5c4)c[nH]c3n2)c(OC)c1
[1]
  IC50: > 10000 nM
[2]
  IC50: > 10000 nM
[3]
  IC50: < 31.6 nM
[4]
  IC50: < 31.6 nM
[5]
  IC50: < 31.6 nM
[6]
  IC50: < 31.6 nM
[7]
  viability, T/C: 120%
[8]
  viability, T/C: 110%
[9]
  viability, T/C: 115%
[10]
  viability, T/C: 108%
[31]
  viability, T/C: 115%
[32]
  viability, T/C: 110%
[11]
  viability, T/C: 91.9%
[12]
  viability, T/C: 94.6%
[13]
  viability, T/C: 90.1%
[14]
  viability, T/C: 87.9%
[33]
  viability, T/C: 93.5%
[34]
  viability, T/C: 82.5%
[15]
  viability, T/C: 27%
[16]
  viability, T/C: 24.8%
[17]
  viability, T/C: 29.8%
[18]
  viability, T/C: 39.2%
[35]
  viability, T/C: 42.6%
[36]
  viability, T/C: 66.2%
[19]
  viability, T/C: 23.5%
[20]
  viability, T/C: 26.6%
[21]
  viability, T/C: 23.5%
[22]
  viability, T/C: 24.2%
[37]
  viability, T/C: 26.9%
[38]
  viability, T/C: 46.2%
[23]
  viability, T/C: 17.9%
[24]
  viability, T/C: 22.7%
[25]
  viability, T/C: 20.4%
[26]
  viability, T/C: 22.6%
[39]
  viability, T/C: 27.7%
[40]
  viability, T/C: 31.8%
[27]
  viability, T/C: 19.7%
[28]
  viability, T/C: 20.5%
[29]
  viability, T/C: 20.3%
[30]
  viability, T/C: 27.3%
[41]
  viability, T/C: 33.2%
[42]
  viability, T/C: 28.5%
